Values quoted from earlier work, collected in patent publication US20260355187A1, “LURBINECTEDIN AND DOXORUBICIN COMBINATION” (PHARMA MAR, S.A., priority 2022, published 2026).
Structures can show the parent of a compound that is named as a salt.

Assays:
CYP3A4 = conditions: role: substrate; human microsomes, in vitro
[1] = system: NCI panel of 36 cell lines
CYP2E1 = conditions: role: substrate; human microsomes, in vitro; after CYP3A4
other CYP isoenzymes = conditions: role: substrate; human microsomes, in vitro
[2] = system: tumour-derived cell lines; conditions: in vitro
[3] = system: tumour-associates macrophages; conditions: by inhibiting active transcription
CYP2D6 = conditions: role: substrate
P-glycoprotein (P-gp) = conditions: role: substrate
[4] = system: CYP3A4, CYP2D6, and/or P-gp; conditions: role: substrate; inhibitors e.g. verapamil
cytochrome P450 CYP3A4 = conditions: role: substrate

Row | Contribution of CYP2E1 to metabolism (CYP2E1) | Estimated contribution of the other CYP isoenzymes to metabolism (other CYP isoenzymes) | half maximal inhibitory concentration (IC50), range in words ([2]; broad selection of tumour-derived cell lines) | IC50 ([2]; median over tumour-derived cell lines) [nM] | Substrate of CYP2D6 (CYP2D6) | Substrate of P-glycoprotein (P-gp) (P-glycoprotein (P-gp)) | Substrate of CYP3A4 (cytochrome P450 CYP3A4) | Structure (SMILES) | Contribution of CYP3A4 to metabolism (CYP3A4) | COMPARE analysis ([1]; against other 98 standard anticancer agents) | COMPARE correlation with trabectedin (S-rank) ([1]; versus trabectedin) | Cytokine production in tumour-associated macrophages [3] | Clinical interaction with inhibitors of CYP3A4, CYP2D6, and/or P-gp [4]
1 | followed by CYP2E1 | negligible | low to very low nanomolar range | ~0.1 | – | – | – | COc1ccc2[nH]c3c(c2c1)CCN[C@]31CS[C@@H]2c3c(OC(C)=O)c(C)c4c(c3[C@H](COC1=O)N1[C@@H]2[C@H]2c3c(cc(C)c(OC)c3O)C[C@@H]([C@@H]1O)N2C)OCO4 [lurbinectedin] | major CYP isoform involved in the metabolism | negative | > 0.8 | downregulates IL-6, IL-8, CCL2, and VEGF | –
2 | – | – | – | – | major substrate | major substrate | major substrate | COc1cccc2c1C(=O)c1c(O)c3c(c(O)c1C2=O)C[C@@](O)(C(=O)CO)C[C@@H]3O[C@H]1C[C@H](N)[C@H](O)[C@H](C)O1 [doxorubicin, 5,12-Naphthacenedione, 10-[(3-amino-2,3,6-trideoxy-α-L-lyxo-hexopyranosyl)oxy]-7,8,9,10tetrahydro-6,8,11-trihydroxy-8-(hydroxylacetyl)-1-methoxy-, hydrochloride (8S-cis)] | – | – | – | – | increased concentration and clinical effect of doxorubicin
